In the supplement of paper PMC10307832:

How the values were obtained:
Assay in all cases: relative viability (nuclei count vs DMSO), 5 days (fraction); higher = more cells survive
Apatinib + Trametinib = compound: N#CC1(c2ccc(NC(=O)c3cccnc3NCc3ccncc3)cc2)CCCC1 [Apatinib] + CC(=O)Nc1cccc(-n2c(=O)n(C3CC3)c(=O)c3c(Nc4ccc(I)cc4F)n(C)c(=O)c(C)c32)c1 [Trametinib] (partner 0.02 µM)
Method in brief: (§1)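 After 5 days of treatment, lung cancer cells in 1536-well plates were fixed and stained in a single step (final 0.05% Triton X-100, 1% formaldehyde, 1 ug/ml Hoechst) and their nuclei counted on 4× images. Treatment had been applied by pin tool the day after seeding as one drug alone or as a fixed anchor-drug dose with five library-drug doses (not always all listed) in √10 steps. Relative viability is the nuclei count of treated wells divided by that of vehicle wells, and values are medians of duplicate plates.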

Apatinib + Pictilisib = compound: N#CC1(c2ccc(NC(=O)c3cccnc3NCc3ccncc3)cc2)CCCC1 [Apatinib] + CS(=O)(=O)N1CCN(Cc2cc3nc(-c4cccc5[nH]ncc45)nc(N4CCOCC4)c3s2)CC1 [Pictilisib] (partner 1 µM)
Method in brief: as §1

Metformin + Dasatinib = compound: CN(C)C(=N)NC(=N)N [Metformin] + Cc1nc(Nc2ncc(C(=O)Nc3c(C)cccc3Cl)s2)cc(N2CCN(CCO)CC2)n1 [Dasatinib] (partner 0.075 µM)
Method in brief: as §1

Apatinib + Foretinib = compound: N#CC1(c2ccc(NC(=O)c3cccnc3NCc3ccncc3)cc2)CCCC1 [Apatinib] + COc1cc2c(Oc3ccc(NC(=O)C4(C(=O)Nc5ccc(F)cc5)CC4)cc3F)ccnc2cc1OCCCN1CCOCC1 [Foretinib] (partner 0.25 µM)
Method in brief: as §1

| Cell Line | relative viability (Apatinib + Trametinib; first compound 0.08 µM) | relative viability (Apatinib + Trametinib; first compound 0.253 µM) | relative viability (Apatinib + Trametinib; first compound 0.8 µM) | relative viability (Apatinib + Trametinib; first compound 2.53 µM) | relative viability (Apatinib + Trametinib; first compound 8 µM) | relative viability (Apatinib + Pictilisib; first compound 0.08 µM) | relative viability (Apatinib + Pictilisib; first compound 0.253 µM) | relative viability (Apatinib + Pictilisib; first compound 0.8 µM) | relative viability (Apatinib + Pictilisib; first compound 2.53 µM) | relative viability (Apatinib + Pictilisib; first compound 8 µM) | relative viability (Metformin + Dasatinib; first compound 10 µM) | relative viability (Metformin + Dasatinib; first compound 31.62 µM) | relative viability (Metformin + Dasatinib; first compound 100 µM) | relative viability (Metformin + Dasatinib; first compound 316.23 µM) | relative viability (Metformin + Dasatinib; first compound 1000 µM) | relative viability (Apatinib + Foretinib; first compound 0.08 µM) | relative viability (Apatinib + Foretinib; first compound 0.253 µM) | relative viability (Apatinib + Foretinib; first compound 0.8 µM) | relative viability (Apatinib + Foretinib; first compound 2.53 µM) | relative viability (Apatinib + Foretinib; first compound 8 µM) |
| --- | --- | --- | --- | --- | --- | --- | --- | --- | --- | --- | --- | --- | --- | --- | --- | --- | --- | --- | --- | --- |
| HCC-44 | 1.08 | 0.993 | 1.07 | 1.09 | 0.811 | 0.639 | 0.686 | 0.584 | 0.548 | 0.659 |  |  |  |  |  |  |  |  |  |  |
| HOP-62 | 0.411 | 0.395 | 0.36 | 0.422 | 0.394 | 0.85 |  | 0.816 | 0.758 | 0.466 | 0.748 | 0.664 | 0.687 | 0.713 | 0.655 | 1.15 | 1.18 | 1.11 | 1.1 | 0.848 |
| NCI-H358 | 0.144 | 0.12 | 0.179 | 0.159 | 0.131 | 0.282 | 0.241 | 0.283 | 0.298 | 0.301 | 0.143 | 0.127 | 0.118 | 0.212 | 0.14 | 0.83 | 0.912 | 0.671 | 0.685 | 0.696 |
| NCI-H596 | 0.89 | 0.831 | 0.803 | 0.696 | 0.722 | 0.419 | 0.402 | 0.353 | 0.32 | 0.383 | 0.622 | 0.67 | 0.757 | 0.696 | 0.655 | 0.771 | 0.888 | 0.624 | 0.99 | 0.853 |
| ABC-1 |  |  |  |  |  |  | 1.01 | 0.637 | 0.752 | 0.552 | 0.414 | 0.73 | 0.659 | 0.316 | 0.31 |  | 1.27 | 0.961 | 1.1 | 1.02 |
| SW 900 | 0.757 | 0.801 | 0.772 | 0.623 | 0.642 |  |  |  |  |  | 0.844 | 0.989 | 0.73 | 0.825 | 0.766 | 1.06 | 0.921 | 0.822 | 0.584 | 0.605 |
| NCI-H1734 | 0.689 | 0.712 | 0.682 | 0.664 | 0.618 | 0.478 | 0.491 | 0.466 | 0.469 | 0.416 | 0.413 | 0.472 | 0.463 | 0.47 | 0.498 | 0.932 | 0.833 | 0.839 | 0.732 | 0.676 |
| HARA | 0.736 | 0.829 | 0.673 |  | 0.6 | 0.447 | 0.491 | 0.494 | 0.435 | 0.307 |  | 0.311 | 0.389 | 0.319 | 0.423 | 0.976 | 0.898 | 0.812 | 0.847 | 0.93 |
| NCI-H1703 |  |  |  |  |  | 0.239 | 0.272 | 0.198 | 0.222 | 0.221 |  |  |  |  |  | 0.37 | 0.345 | 0.31 | 0.297 | 0.37 |
| A549 |  |  |  |  |  | 0.651 | 0.626 | 0.421 | 0.488 | 0.406 |  |  |  |  |  | 0.945 | 0.933 | 1 | 0.887 | 0.855 |
| NCI-H1915 | 0.321 | 0.315 | 0.311 | 0.302 | 0.286 | 1.12 | 0.91 | 0.943 | 0.878 | 0.752 |  | 0.34 | 0.346 | 0.335 | 0.355 | 1.18 | 1.08 | 1.03 | 0.943 | 0.836 |
| NCI-H1355 | 0.422 | 0.444 | 0.354 | 0.367 | 0.314 | 0.499 | 0.42 | 0.428 | 0.382 | 0.364 | 0.718 | 0.638 | 0.681 | 0.638 | 0.778 | 0.961 | 0.9 | 1.07 | 0.9 | 0.786 |
| NCI-H1650 | 0.607 | 0.659 | 0.395 | 0.515 | 0.482 | 0.355 | 0.658 | 0.58 | 0.526 | 0.477 | 0.443 | 0.456 | 0.366 | 0.301 | 0.369 |  | 1.07 | 0.959 | 0.923 | 0.81 |
| HCC-78 | 0.717 | 0.683 | 0.781 | 0.651 | 0.61 | 0.299 | 0.158 | 0.236 | 0.221 | 0.205 | 0.405 | 0.469 | 0.459 | 0.549 | 0.327 | 0.6 | 0.513 | 0.523 | 0.536 | 0.535 |
| NCI-H1666 | 0.843 | 0.942 | 0.783 | 0.81 | 0.681 | 0.408 | 0.413 | 0.456 | 0.418 | 0.54 | 0.752 | 0.957 | 0.79 | 0.798 | 0.779 | 0.953 | 0.998 | 0.942 | 0.943 | 1.03 |
| HCC-15 | 0.393 | 0.295 | 0.327 | 0.367 | 0.308 | 0.77 | 0.786 | 0.693 | 0.706 | 0.71 |  | 0.625 | 0.581 | 0.556 | 0.584 | 1.1 | 0.866 | 1 | 0.999 | 0.834 |
| EKVX | 0.419 | 0.362 | 0.32 | 0.392 | 0.251 | 0.454 | 0.394 | 0.435 | 0.341 | 0.401 |  | 0.856 | 0.598 | 0.671 | 0.779 | 0.71 | 0.872 | 0.951 | 0.615 | 0.775 |
| NCI-H3122 | 0.251 | 0.234 | 0.247 | 0.181 | 0.176 | 0.679 | 0.538 | 0.684 | 0.731 | 0.701 | 0.509 | 0.879 | 0.897 | 0.666 | 0.896 | 0.995 | 0.891 | 0.947 | 1.06 | 0.918 |
